Experiment [1] has as its system HiBiT-tagged MYB protein. Nature of the experiment: HiBiT protein abundance assay, MYB (K562 HiBiT knock-in). It counts as cell-based, human. The note with it: HiBiT knock-in cells, 24 hours. The gist of the method:
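Endogenously HiBiT-tagged K562 knock-in lines treated 24 h at 37 °C with 10-point 3-fold dilutions (top 10 μM final, DMSO ≤0.25%) in IMDM+1% FBS. Lytic Nano-Glo luminescence normalized to DMSO and unmodified K562 controls; four-parameter fit gives 50%-abundance concentration (IC50).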

In experiment [2] the test system is MYB mRNA. The experiment in a line: Splicing RT-qPCR assay, MYB canonical (CJ) and alternative (AJ) junction mRNA. As to conditions: Homo sapiens; for IC50: canonical junction mRNA; for AC50: alternative junction mRNA, read-out: MYB AJ (AC50, increase in AJ mRNA). It counts as cell-based, human. A digest of the protocol:
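Splicing switches are scored by TaqMan qPCR on cell lysate, comparing abundance of the normal exon junction with the new junction formed when the alternative exon is included. A673 results are referenced to PPIA and K562 results to GAPDH or GUSB. Compound exposure lasts 24 h.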

Setting [3] is: qPCR panel, read-out: MYB CJ (decrease in CJ mRNA levels, IC50).
Setting [4] is: RT-qPCR, A673 or K562 cells, 24 hours treatment.
The mark [5] stands for this setting: RT-qPCR, A673 or K562 cells, 24 hours treatment, read-out: MYB CJ (IC50, decrease in CJ mRNA).

Drawing on patent US20250326748A1, “COMPOUNDS AND METHODS FOR MODULATING SPLICING” (REMIX THERAPEUTICS INC., priority 2022, published 2025), this text covers IC50 and AC50 for 25 compounds.

Read-outs that look alike come from different tables or passages of the source.

Regarding `Cn1cc2cc(-c3ccc4cc(N5CC[C@H](NC(C)(C)C)C5)cnc4n3)c(O)cc2n1` (single isomer, unassigned) [Compound 200], the IC50 in experiment [1], in experiment [2] (setting [3]) and in experiment [2] (setting [5]) was 0.1 to 1 µM throughout. Also, in experiment [2] (setting [4]), the AC50 was 0.1 to 1 µM.

In the case of `CNC1CCN(c2cnc3nc(-c4cc(F)c5nc(C)cn5c4)ccc3c2)C1` (stereo not shown) [Compound 100, 1-(7-{8-fluoro-2-methylimidazo[1,2-a]pyridin-6-yl}-1,8-naphthyridin-3-yl)-N-methylpyrrolidin-3-amine], the IC50 in experiment [1], in experiment [2] (setting [3]) and in experiment [2] (setting [5]) was below 0.1 µM in each case. In addition, the AC50 in experiment [2] (setting [4]) was below 0.1 µM.

For `Cn1cc2cc(-c3cnc4nc(N5CCNCC5)cc(Cl)c4c3)cc(F)c2n1` [Compound 101, 4-chloro-6-(7-fluoro-2-methyl-2H-indazol-5-yl)-2-(piperazin-1-yl)-1,8-naphthyridine], the values for the IC50 in experiment [1], in experiment [2] (setting [3]) and in experiment [2] (setting [5]) were below 0.1 µM, 0.1 to 1 µM and 0.1 to 1 µM, respectively. Moreover, the half-maximal activity concentration (AC50) in experiment [2] (setting [4]) was below 0.1 µM.

Turning to `Cn1cc2cc(-c3cc(Cl)c4cc(N5CCNCC5)cnc4n3)c(O)cc2n1` [Compound 102, 5-[4-chloro-6-(piperazin-1-yl)-1,8-naphthyridin-2-yl]-2-methylindazol-6-ol], the IC50 in experiment [1], in experiment [2] (setting [3]) and in experiment [2] (setting [5]) was below 0.1 µM in each case. In addition, in experiment [2] (setting [4]), the AC50 was below 0.1 µM.

As for `Cn1cc2cc(-c3cc(Cl)c4cc(N5CCNCC5)cnc4n3)cc(F)c2n1` [Compound 103], the IC50 in experiment [1], in experiment [2] (setting [3]) and in experiment [2] (setting [5]) was below 0.1 µM throughout. For the same compound, the AC50 in experiment [2] (setting [4]) is below 0.1 µM.

Regarding `Cc1c(O)c(-c2cc(Cl)c3cc(N4CCNCC4)cnc3n2)cc2cn(C)nc12` [Compound 154, 5-[4-chloro-6-(piperazin-1-yl)-1,8-naphthyridin-2-yl]-2,7-dimethylindazol-6-ol], the IC50 in experiment [1], in experiment [2] (setting [3]) and in experiment [2] (setting [5]) was below 0.1 µM in each case. In experiment [2] (setting [4]), the AC50 is below 0.1 µM.

With `Cn1cc2cc(-c3cc(Cl)c4cc(N5CCNCC5)cnc4n3)c(O)c(F)c2n1` [Compound 155, 5-[4-chloro-6-(piperazin-1-yl)-1,8-naphthyridin-2-yl]-7-fluoro-2-methylindazol-6-ol], the IC50 in experiment [1], in experiment [2] (setting [3]) and in experiment [2] (setting [5]) was below 0.1 µM each time. Also, in experiment [2] (setting [4]), the AC50 is below 0.1 µM.

For `Cc1c(O)c(-c2ncc3cc(N4CC[C@@H](N)C4)cnc3n2)cc2cn(C)nc12` [Compound 159, (R)-5-(6-(3-aminopyrrolidin-1-yl)pyrido[2,3-d]pyrimidin-2-yl)-2,7-dimethyl-2H-indazol-6-ol 2,2,2-trifluoroacetate], the IC50 in experiment [1], in experiment [2] (setting [3]) and in experiment [2] (setting [5]) was below 0.1 µM in each case. In experiment [2] (setting [4]), the AC50 is below 0.1 µM.

As for `Cc1c(O)c(-c2ncc3cc(N4CC[C@H](N)C4)cnc3n2)cc2cn(C)nc12` [Compound 160, (S)-5-(6-(3-aminopyrrolidin-1-yl)pyrido[2,3-d]pyrimidin-2-yl)-2,7-dimethyl-2H-indazol-6-ol 2,2,2-trifluoroacetate], the IC50 in experiment [1], in experiment [2] (setting [3]) and in experiment [2] (setting [5]) was below 0.1 µM throughout. The concentration at half-maximal activity (AC50) in experiment [2] (setting [4]) is below 0.1 µM.

`CNC1CCN(c2cnc3nc(-c4cc5cn(C)nc5c(C)c4O)nc(OC)c3c2)C1` (stereo not shown) [Compound 161, 5-{4-methoxy-6-[3-(methylamino)pyrrolidin-1-yl]pyrido[2,3-d]pyrimidin-2-yl}-2,7-dimethylindazol-6-ol]: the IC50 in experiment [1], in experiment [2] (setting [3]) and in experiment [2] (setting [5]) was below 0.1 µM in each case. Also, the AC50 in experiment [2] (setting [4]) is below 0.1 µM.

For the compound `COc1nc(-c2cc3cn(C)nc3c(C)c2O)nc2ncc(N3CCNCC3)cc12` [Compound 162, 5-[4-methoxy-6-(piperazin-1-yl)pyrido[2,3-d]pyrimidin-2-yl]-2,7-dimethylindazol-6-ol], the IC50 in experiment [1], in experiment [2] (setting [3]) and in experiment [2] (setting [5]) was below 0.1 µM throughout. In experiment [2] (setting [4]), the AC50 is below 0.1 µM.

With `COc1nc(-c2cc3cn(C)nc3c(C)c2O)nc2ncc(N3CCC(N(C)C)CC3)cc12` [Compound 163, 5-{6-[4-(dimethylamino)piperidin-1-yl]-4-methoxypyrido[2,3-d]pyrimidin-2-yl}-2,7-dimethylindazol-6-ol], the IC50 in experiment [1], in experiment [2] (setting [3]) and in experiment [2] (setting [5]) was 0.1 to 1 µM in each case. The AC50 in experiment [2] (setting [4]) is 0.1 to 1 µM.

For the compound `Cn1cc2cc(-c3cnc4cc(N5CCC(NC6CC6)C5)ccc4n3)c(O)c(F)c2n1` (stereo not shown) [Compound 175, 5-[6-[3-(cyclopropylamino)pyrrolidin-1-yl]quinoxalin-2-yl]-7-fluoro-2-methyl-indazol-6-ol], the IC50 in experiment [1], in experiment [2] (setting [3]) and in experiment [2] (setting [5]) was below 0.1 µM in each case. Besides, in experiment [2] (setting [4]), the half-maximal activity concentration (AC50) is below 0.1 µM.

In the case of `Cn1cc2cc(-c3cnc4cc(N5CC[C@H](NC6CC6)C5)ccc4n3)c(O)c(F)c2n1` [Compound 176, 5-[6-[(3S)-3-(cyclopropylamino)318quinoxaline-1-yl]318quinoxaline-2-yl]-7-fluoro-2-methyl-indazol-6-ol], the IC50 in experiment [1], in experiment [2] (setting [3]) and in experiment [2] (setting [5]) was below 0.1 µM in each case. Further, the AC50 in experiment [2] (setting [4]) is below 0.1 µM.

As for `Cn1cc2cc(-c3cnc4cc(N5CC[C@@H](NC6CC6)C5)ccc4n3)c(O)c(F)c2n1` [Compound 177, 5-[6-[(3R)-3-(cyclopropylamino)318quinoxaline-1-yl]318quinoxaline-2-yl]-7-fluoro-2-methyl-indazol-6-ol], the IC50 in experiment [1], in experiment [2] (setting [3]) and in experiment [2] (setting [5]) was below 0.1 µM throughout. Moreover, the AC50 in experiment [2] (setting [4]) is below 0.1 µM.

With `Cn1cc2cc(-c3cnc4nc(N5CCC(NC6CC6)C5)ccc4n3)c(O)c(F)c2n1` (stereo not shown) [Compound 178, 5-[6-[3-(cyclopropylamino)pyrrolidin-1-yl]pyrido[2,3-b]pyrazin-2-yl]-7-fluoro-2-methyl-indazol-6-ol], the IC50 in experiment [1] is 0.1 to 1 µM; in experiment [2] (setting [3]), below 0.1 µM; in experiment [2] (setting [5]), below 0.1 µM. For the same compound, the AC50 in experiment [2] (setting [4]) was in the range of 0.1 to 1 µM.

Regarding `Cc1nc2c(C)c(O)c(-c3cnc4cc(N5CCC(NC6CC6)C5)ccc4n3)cc2o1` (stereo not shown) [Compound 182, 6-[6-[3-(cyclopropylamino)pyrrolidin-1-yl]quinoxalin-2-yl]-2,4-dimethyl-1,3-benzoxazol-5-ol], the IC50 in experiment [1], in experiment [2] (setting [3]) and in experiment [2] (setting [5]) was below 0.1 µM in each case. Moreover, in experiment [2] (setting [4]), the AC50 was below 0.1 µM.

With `CNC1CCN(c2cnc3nc(-c4cc5cn(C)nc5c(C)c4O)ccc3n2)C1` (stereo not shown) [Compound 192, 2,7-dimethyl-5-{2-[3-(methylamino)337pyrrolidine-1-yl]pyrido[2,3-b]pyrazin-6-yl}indazol-6-ol], the IC50 in experiment [1], in experiment [2] (setting [3]) and in experiment [2] (setting [5]) was 0.1 to 1 µM throughout. In addition, in experiment [2] (setting [4]), the AC50 lay within 0.1 to 1 µM.

Turning to `CNC1CCN(c2cnc3nc(-c4cc5cn(C)nc5c(C)c4O)cc(Cl)c3n2)C1` (stereo not shown) [Compound 193, 5-{8-chloro-2-[3-(methylamino)355pyrrolidine-1-yl]pyrido[2,3-b]pyrazin-6-yl}-2,7-dimethylindazol-6-ol], the IC50 in experiment [1], in experiment [2] (setting [3]) and in experiment [2] (setting [5]) was below 0.1 µM throughout. In addition, in experiment [2] (setting [4]), the AC50 was below 0.1 µM.

In the case of `CNC1CCN(c2cnc3nc(-c4cc5cn(C)nc5c(C)c4O)cc(OC)c3n2)C1` (stereo not shown) [Compound 194, 5-{8-methoxy-2-[3-(methylamino)360pyrrolidine-1-yl]pyrido[2,3-b]pyrazin-6-yl}-2,7-dimethylindazol-6-ol], the IC50 in experiment [1], in experiment [2] (setting [3]) and in experiment [2] (setting [5]) was 1 to 10 µM each time. In experiment [2] (setting [4]), the AC50 was in the range of 1 to 10 µM.

As for `Cc1c(O)c(-c2ccc3nc(N4C[C@@H](C)N[C@@H](C)C4)cnc3n2)cc2cn(C)nc12` [Compound 195, 5-{2-[(3R,5S)-3,5-dimethylpiperazin-1-yl]pyrido[2,3-b]pyrazin-6-yl}-2,7-dimethylindazol-6-ol], the IC50 in experiment [1], in experiment [2] (setting [3]) and in experiment [2] (setting [5]) was 0.1 to 1 µM throughout. Also, the AC50 in experiment [2] (setting [4]) was 0.1 to 1 µM.

With `Cc1c(O)c(-c2ccc3nc(N4CCNCC4)cnc3n2)cc2cn(C)nc12` [Compound 197, 2,7-dimethyl-5-[2-(piperazin-1-yl)pyrido[2,3-b]pyrazin-6-yl]indazol-6-ol], the IC50 in experiment [1], in experiment [2] (setting [3]) and in experiment [2] (setting [5]) was 0.1 to 1 µM throughout. Besides, the AC50 in experiment [2] (setting [4]) is 0.1 to 1 µM.

As to `Cc1c(O)c(-c2ccc3nc(N4CCC(N(C)C)CC4)cnc3n2)cc2cn(C)nc12` [Compound 198], the figures for the IC50 in experiment [1], in experiment [2] (setting [3]) and in experiment [2] (setting [5]) were 0.1 to 1 µM, below 0.1 µM and 0.1 to 1 µM, respectively. For the same compound, in experiment [2] (setting [4]), the AC50 fell in the range of 0.1 to 1 µM.

On to `Cn1cc2cc(-c3ccc4cc(N5CC[C@@H](NC(C)(C)C)C5)cnc4n3)c(O)cc2n1` [Compound 199], for which the IC50 in experiment [1] was below 0.1 µM; in experiment [2] (setting [3]), 1 to 10 µM; in experiment [2] (setting [5]), 1 to 10 µM. In addition, in experiment [2] (setting [4]), the AC50 fell in the range of 1 to 10 µM.

Regarding `Cc1cn2cc(-c3cnc4nc(C5CCNCC5)ccc4c3)cc(C)c2n1` [Compound 201], the IC50 was 1 to 10 µM in experiment [1], below 0.1 µM in experiment [2] (setting [3]) and above 10 µM in experiment [2] (setting [5]). Also, in experiment [2] (setting [4]), the AC50 was above 10 µM.
